Results taken from ChEMBL document CHEMBL1124810, “Synthesis and anti-HIV evaluation of 2',3'-dideoxyribo-5-chloropyrimidine analogues: reduced toxicity of 5-chlorinated 2',3'-dideoxynucleosides” (1990).
pEC50: −log10 of the molar value.

Columns and labels:
Assay type in all cases: functional
MT4 [1] = assay: Cytotoxic dose required to reduce the viability of normal uninfected MT-4 cells by 50%; conditions: Homo sapiens, read-out: CD50 (the source's name)
MT4 [2] = assay: Selectivity index of CD50 to ED50 of MT-4 cells
[3] = test system: Human immunodeficiency virus 1; assay: Effective dose achieving 50% protection of MT-4 cells against the cytopathic effect of HIV; conditions: Human immunodeficiency virus 1, MT4; read-out: ED50 (the source's name)

SMILES | CC50 (MT4 [1]) | Selectivity index (MT4 [2]) | pEC50 [3]
[N-]=[N+]=N[C@H]1C[C@H](n2ccc(N)nc2=O)O[C@@H]1CO | 160 µM | 21 | 5.12
Nc1ccn([C@H]2C=C[C@@H](CO)O2)c(=O)n1 | 7.9 µM | 61 | 6.89
O=c1ccn(/C=C/C(O)C(O)CO)c(=O)[nH]1 (configuration not stated) | > 500 µM |  | < 3.30
Nc1nc(=O)n(C2CCC(CO)O2)cc1Cl (configuration not stated) | > 500 µM |  | < 3.30
Cc1cn([C@H]2C[C@H](N=[N+]=[N-])[C@@H](CO)O2)c(=O)[nH]c1=O [ZIDOVUDINE] | 4.81 µM | 1603 | 8.52
O=c1ccn(C2C[C@@H](F)[C@@H](CO)O2)c(=O)[nH]1 (some centres not stated) | 1.1 µM | 18 | 7.22
[N-]=[N+]=N[C@H]1C[C@H](n2ccc(=O)[nH]c2=O)O[C@@H]1CO [NAVURIDINE] | 39 µM | 90 | 6.37
Nc1ccn(C2C[C@@H](F)[C@@H](CO)O2)c(=O)n1 (some centres not stated) | 26 µM | 1.6 | 4.80
O=c1ccn([C@H]2C=C[C@@H](CO)O2)c(=O)[nH]1 | 39 µM | <2 | < 4.70
O=c1ccn(C2CCC(CO)O2)c(=O)[nH]1 (configuration not stated) | > 625 µM | >3 | 3.68
[N-]=[N+]=N[C@@H]1CC(n2cc(Cl)c(N)nc2=O)O[C@@H]1CO (some centres not stated) | 877 µM | 97 | 5.05
Cc1cn(/C=C/C(O)C(O)CO)c(=O)[nH]c1=O (configuration not stated) | > 500 µM | >1 | 3.32
Nc1ccn([C@H]2CC[C@@H](CO)O2)c(=O)n1 [ZALCITABINE] | 40 µM | 120 | 6.52
[N-]=[N+]=N[C@@H]1CC(n2cc(Cl)c(=O)[nH]c2=O)O[C@@H]1CO (some centres not stated) | 213 µM | 296 | 6.14
Cc1cn([C@H]2C=C[C@@H](CO)O2)c(=O)[nH]c1=O [STAVUDINE] | 19 µM | 380 | 7.30
O=c1[nH]c(=O)n(C2CCC(CO)O2)cc1Cl (configuration not stated) | > 500 µM | >6 | 4.09
Nc1nc(=O)n(C2C[C@@H](F)[C@@H](CO)O2)cc1Cl (some centres not stated) | > 1000 µM | >38 | 4.59
O=c1[nH]c(=O)n([C@H]2C=C[C@@H](CO)O2)cc1Cl | 44 µM | <2.2 | < 4.70
O=c1[nH]c(=O)n([C@H]2C[C@H](F)[C@@H](CO)O2)cc1Cl [RALURIDINE] |  | 1408 | 6.42
Nc1nc(=O)n([C@H]2C=C[C@@H](CO)O2)cc1Cl | 185 µM | 8.4 | 4.66
